# Data from patent US20230285374A1, “THERAPEUTIC METHODS USING VADADUSTAT” (Akebia Therapeutics, Inc., priority 2019, published 2023).
# Legend:
# [1] = system: stage 3, 4, or 5 CKD patients; test: Phase 2a clinical trials in stage 3, 4, or 5 CKD patients (iron parameters vs placebo); format: in vivo, human
# Method: In certain embodiments, unsaturated iron binding capacity (UIBC) may be determined by adding serum to an alkaline buffer/reductant solution containing a known concentration of iron to saturate the available binding sites on transferrin. The Ferrozine chromogen reacts only with the Fe^2+; therefore, an iron reductant is added to insure that all iron is present in the ferrous state. The excess unbound divalent iron reacts with Ferrozine chromogen to form a magenta complex, which is measure spectrophotometrically. The unsaturated iron binding capacity (UIBC) is equal to the difference measured in the concentrations of the added iron solution and the excess unbound iron. Serum TIBC is equal to total serum iron plus UIBC and may therefore be calculated using the results of the UIBC and serum iron determinations.
# In certain embodiments, serum iron may be determined using a test based on the FerroZine method without deproteinization. Specimens are analyzed on the Roche Modular Instrument utilizing Roche Diagnostics Reagents. Under acidic conditions, iron is liberated from transferrin. The detergent clarifies lipemic samples. Ascorbate reduces the released Fe3+ ions to Fe2+ ions, which then react with FerroZine to form a colored complex. The color intensity is directly proportional to the iron concentration and can be measured photometrically.
# [2] = system: adult patients with NDD-CKD and anemia, actively treated with an ESA; test: Phase 3 ESA-treated NDD-CKD (Conversion) trial, vadadustat vs darbepoetin alfa; format: in vivo, human; settings: Conversion study
# Method: Two global, Phase 3, randomized, open-label, active-controlled, sponsor-blind clinical trials were conducted to evaluate safety and efficacy of vadadustat (Compound 1) vs the ESA darbepoetin alfa in adult patients with NDD-CKD and anemia. Patients recruited into the ESA-untreated NDD-CKD trial (N=1761) had hemoglobin <10 g/dL and were not previously being treated with an ESA. Patients recruited into the ESA-treated NDD-CKD trial (N=1750) had hemoglobin ranges of 8-11 g/dL (US) or 9-12 g/dL (non-US) and were actively treated with an ESA for anemia associated with CKD. Trial periods in both trials included 1) correction/conversion (weeks 0-23); 2) maintenance (weeks 24-52); 3) long-term treatment (week 53 to end of treatment); and 4) safety follow-up (end-of-treatment to 4 weeks later). The primary safety endpoint was time to first adjudicated major adverse cardiovascular event, defined as all-cause mortality, non-fatal myocardial infarction or non-fatal stroke pooled across both trials. The primary efficacy endpoint in each trial was mean change in hemoglobin from baseline to primary evaluation period (weeks 24-36) comparing vadadustat vs darbepoetin alfa treatment arms. Demographics and baseline characteristics were similar among patients in both trials, and typical for a large proportion of the NDD-CKD population. These trials helped define the safety and efficacy of vadadustat, an oral hypoxia-inducible factor prolyl hydroxylase inhibitor for management of anemia associated with NDD-CKD.
# Two randomized, Phase 3, open-label, active-controlled clinical trials were conducted to evaluate the safety and efficacy of oral vadadustat versus injectable darbepoetin alfa: Correction (previously ESA-untreated) and Conversion (previously ESA-treated). Target enrollment for each was approximately 1850 patients recruited at approximately 390 and 480 sites in North America, Latin America, Europe, and the Asia Pacific for the ESA-untreated NDD-CKD trial and the ESA-treated NDD-CKD trial, respectively.
# Trial Populations. Each trial recruited adults (>18 years of age) with NDD-CKD (estimated glomerular filtration rate 60 mL/min/1.73 m^2). […] In addition to the hemoglobin entry criteria, all patients were required to have serum ferritin ≥100 ng/mL and transferrin saturation 20% at screening in order to be randomized. In the ESA-untreated NDD-CKD trial, ESA use was permitted during screening, as per standard of care; however, patients were excluded if they received any ESA within 8 weeks of randomization. In the ESA-treated NDD-CKD trial, patients were actively maintained on ESA therapy, with at least one dose received within 6 weeks before or during screening. […]
smiles,measurement,setting,value
"O=C(O)CNC(=O)c1ncc(-c2cccc(Cl)c2)cc1O [Compound 1, Vadadustat]",serum iron levels,[1]; 6 weeks post administration,not associated with an increase in serum iron levels
same,total iron binding capacity (TIBC) levels,"[1]; 6 weeks post administration, compared to placebo treated patients",increase
same,transferrin saturation (TSAT),[1]; dose-related,decrease
same,mean (SD) Hb level,[2]; week 24 to week 36,10.77 (0.98) g/dL
same,mean (SD) Hb level,[2]; week 40 to week 52,10.80 (1.04) g/dL
same,least square mean difference in Hb (vadadustat vs darbepoetin alfa),"[2]; weeks 24 to 36, non-inferiority margin −0.75 g/dL",-0.01 g/dL
same,least square mean difference in Hb (vadadustat vs darbepoetin alfa),[2]; weeks 40 to 52,0.00 g/dL
